Results as given in US20200325177A1, “METHODS OF MAKING STREPTOGRAMIN COMPOSITIONS AND THE USE THEREOF” (THE REGENTS OF THE UNIVERSITY OF CALIFORNIA, priority 2017, published 2020).
≈ marks a conversion by molar mass, not a printed value. Read-outs that look alike come from different tables or passages of the source.

Experiments:
Assay type in all cases: cell-based
E. faecalis = test: MIC, Gram-positive bacteria: E. faecalis; conditions: Enterococcus faecalis, column 1, read-out: Minimal Inhibitory Concentration (MIC) E. faecalis
E. faecium ATCC 35667 = test: MIC, Gram-positive bacteria: E. faecium ATCC 35667; conditions: Enterococcus faecium, ATCC35667, column 2, read-out: Minimal Inhibitory Concentration (MIC) E. faecium ATCC 35667
E. faecium VRE; vanA = test: MIC, Gram-positive bacteria: E. faecium VRE; vanA; conditions: Enterococcus faecium, column 3, read-out: Minimal Inhibitory Concentration (MIC) E. faecium VRE
S. aureus = test: MIC, Gram-positive bacteria: S. aureus (strains not named); conditions: Staphylococcus aureus, read-out: Minimal Inhibitory Concentration (MIC) S. aureus
[1] = test system: S. aureus Vat A streptogramin; test: MIC, Gram-positive bacteria: S. aureus Vat A streptogramin; conditions: Staphylococcus aureus; Gram-positive; column 5; read-out: Minimal Inhibitory Concentration (MIC) S. aureus Vat A streptogramin
[2] = test system: S. aureus Linezolid-resistant; cfr; test: MIC, Gram-positive bacteria: S. aureus Linezolid-resistant; cfr; conditions: Staphylococcus aureus, column 9, read-out: Minimal Inhibitory Concentration (MIC) S. aureus Linezolid-resistant
S. pneumoniae = test: MIC, Gram-positive bacteria: S. pneumoniae; conditions: Streptococcus pneumoniae, column 10, read-out: Minimal Inhibitory Concentration (MIC) S. pneumoniae
[3] = test system: K. pneumoniae multidrug-resistant; test: MIC, Gram-negative bacteria: K. pneumoniae multidrug-resistant; conditions: Klebsiella pneumoniae, read-out: Minimal Inhibitory Concentration (MIC) K. pneumoniae multidrug-resistant
P. aeruginosa ATCC 27853 = test: MIC, Gram-negative bacteria: P. aeruginosa ATCC 27853; conditions: Pseudomonas aeruginosa, ATCC27853, read-out: Minimal Inhibitory Concentration (MIC) P. aeruginosa ATCC 27853
[4] = test system: P. aeruginosa MDR clinical isolate; test: MIC, Gram-negative bacteria: P. aeruginosa MDR clinical isolate; conditions: Pseudomonas aeruginosa, read-out: Minimal Inhibitory Concentration (MIC) P. aeruginosa MDR clinical isolate
H. influenzae ATCC 49247 = test: MIC, Gram-negative bacteria: H. influenzae ATCC 49247; conditions: Haemophilus influenzae, ATCC49247, read-out: Minimal Inhibitory Concentration (MIC) H. influenzae ATCC 49247
Gram-Negative Organisms = test: microbe, parasite or virus in culture
[5] = first unnamed S. aureus column (c4)
[6] = fourth unnamed S. aureus column (c8)
[7] = second unnamed S. aureus column (c6)
[8] = third unnamed S. aureus column (c7)
[9] = Acinetobacter baumannii, ATCC19606, read-out: Minimal Inhibitory Concentration (MIC), A. baumannii ATCC 19606
[10] = Escherichia coli, ATCC25922, read-out: Minimal Inhibitory Concentration (MIC), E. coli ATCC 25922
[11] = Escherichia coli, read-out: Minimal Inhibitory Concentration (MIC), E. coli BAS2006, OMP C, OMP F
[12] = Escherichia coli, read-out: Minimal Inhibitory Concentration (MIC), E. coli olC efflux defective
[13] = Escherichia coli, read-out: Minimal Inhibitory Concentration (MIC), E. coli permeability mutant BAS1314, IMP4213ZAB::TN10
[14] = Escherichia coli, read-out: Minimal Inhibitory Concentration (MIC), E. coli ΔompC768, KanR insert
[15] = Klebsiella pneumoniae, ATCC43816, read-out: Minimal Inhibitory Concentration (MIC), K. pneumoniae ATCC 43816

In the case of `CC1=C\[C@@H](O)C[C@@H](F)Cc2nc(co2)C(=O)N2CCC[C@@H]2C(=O)O[C@H](C(C)C)[C@H](C)/C=C/C(=O)NC\C=C\1` [flopristin, reference compound], the MIC (E. faecalis) is reported as > 64 µg/mL, the MIC (E. faecium ATCC 35667) is reported as 0.5 µg/mL (≈ 0.941 µM) and the MIC (E. faecium VRE; vanA) is reported as 2 µg/mL (≈ 3.76 µM). The MIC (S. aureus; [5]) was 0.5 µg/mL (≈ 0.941 µM), the MIC (S. aureus; [6]) was 0.5 µg/mL (≈ 0.941 µM) and the MIC (S. aureus; [7]) was 0.5 µg/mL (≈ 0.941 µM). The MIC (S. aureus; [8]) was 1 µg/mL (≈ 1.88 µM), the MIC [1] was 8 µg/mL (≈ 15 µM) and the MIC [2] was > 64 µg/mL. For the same compound, the MIC (S. pneumoniae) was 2 µg/mL (≈ 3.76 µM), the MIC [3] was > 64 µg/mL and the MIC (P. aeruginosa ATCC 27853) was > 64 µg/mL. For the same compound, the MIC [4] was > 64 µg/mL, the MIC (H. influenzae ATCC 49247) was 0.25 µg/mL (≈ 0.47 µM) and the MIC (Gram-Negative Organisms; [9]) was > 64 µg/mL. The MIC (Gram-Negative Organisms; [10]) was 32 µg/mL (≈ 60.2 µM), the MIC (Gram-Negative Organisms; [11]) was 0.25 µg/mL (≈ 0.47 µM) and the MIC (Gram-Negative Organisms; [12]) was 1 µg/mL (≈ 1.88 µM). For the same compound, the MIC (Gram-Negative Organisms; [13]) was < 0.06 µg/mL, the MIC (Gram-Negative Organisms; [14]) was 64 µg/mL (≈ 120 µM) and the MIC (Gram-Negative Organisms; [15]) was > 64 µg/mL.

`C[C@H]1COc2c(N3CCN(C)CC3)c(F)cc3c(=O)c(C(=O)O)cn1c23` [levofloxacin] was tested, and the MIC (E. faecalis) was 1 µg/mL (≈ 2.77 µM), the MIC (E. faecium ATCC 35667) was 4 µg/mL (≈ 11.1 µM) and the MIC (E. faecium VRE; vanA) was > 8 µg/mL. It also gave an MIC (S. aureus; [5]) of 0.25 µg/mL (≈ 0.692 µM), an MIC (S. aureus; [6]) of 2 µg/mL (≈ 5.53 µM) and an MIC (S. aureus; [7]) of 0.12 µg/mL (≈ 0.332 µM). It also gave an MIC (S. aureus; [8]) of 0.25 µg/mL (≈ 0.692 µM), an MIC [1] of 1 µg/mL (≈ 2.77 µM) and an MIC [2] of 8 µg/mL (≈ 22.1 µM). The MIC (S. pneumoniae) was 0.5 µg/mL (≈ 1.38 µM), the MIC [3] was 1 µg/mL (≈ 2.77 µM) and the MIC (P. aeruginosa ATCC 27853) was 2 µg/mL (≈ 5.53 µM). For the same compound, the MIC [4] was > 8 µg/mL, the MIC (H. influenzae ATCC 49247) was 0.03 µg/mL (≈ 0.083 µM) and the MIC (Gram-Negative Organisms; [9]) was 0.25 µg/mL (≈ 0.692 µM). For the same compound, the MIC (Gram-Negative Organisms; [10]) was 0.015 µg/mL (≈ 0.0415 µM), the MIC (Gram-Negative Organisms; [14]) was 0.015 µg/mL (≈ 0.0415 µM) and the MIC (Gram-Negative Organisms; [15]) was 0.03 µg/mL (≈ 0.083 µM).

With `CC1=C\[C@@H](O)CC(=O)Cc2nc(co2)C(=O)N[C@H](C)C(=O)O[C@H](C(C)C)[C@H](C)/C=C/C(=O)NC\C=C\1` [madumycin I, Madumycin I, reference compound] the MIC (E. faecalis) was 32 µg/mL (≈ 63.8 µM), the MIC (E. faecium ATCC 35667) was 2 µg/mL (≈ 3.99 µM) and the MIC (E. faecium VRE; vanA) was 4 µg/mL (≈ 7.97 µM). It also gave an MIC (S. aureus; [5]) of 8 µg/mL (≈ 15.9 µM), an MIC (S. aureus; [6]) of 4 µg/mL (≈ 7.97 µM) and an MIC (S. aureus; [7]) of 8 µg/mL (≈ 15.9 µM). For the same compound, the MIC (S. aureus; [8]) was 8 µg/mL (≈ 15.9 µM), the MIC [1] was 64 µg/mL (≈ 128 µM) and the MIC [2] was 64 µg/mL (≈ 128 µM). The MIC (S. pneumoniae) was 4 µg/mL (≈ 7.97 µM), the MIC [3] was > 64 µg/mL and the MIC (P. aeruginosa ATCC 27853) was > 64 µg/mL. The MIC [4] was > 64 µg/mL, the MIC (H. influenzae ATCC 49247) was 8 µg/mL (≈ 15.9 µM) and the MIC (Gram-Negative Organisms; [9]) was > 64 µg/mL. The MIC (Gram-Negative Organisms; [10]) was > 64 µg/mL, the MIC (Gram-Negative Organisms; [11]) was 0.5 µg/mL (≈ 0.997 µM) and the MIC (Gram-Negative Organisms; [12]) was 2 µg/mL (≈ 3.99 µM). For the same compound, the MIC (Gram-Negative Organisms; [13]) was 0.25 µg/mL (≈ 0.498 µM) and the MIC (Gram-Negative Organisms; [15]) was > 64 µg/mL.

For `CC1=C\[C@@H](O)C[C@@H](O)Cc2nc(co2)C(=O)N[C@H](C)C(=O)O[C@H](C(C)C)[C@H](C)/C=C/C(=O)NC\C=C\1` [madumycin II, Madumycin II, reference compound], the MIC (E. faecalis) was > 64 µg/mL, the MIC (E. faecium ATCC 35667) was 0.5 µg/mL (≈ 0.993 µM) and the MIC (E. faecium VRE; vanA) was 8 µg/mL (≈ 15.9 µM). The MIC (S. aureus; [5]) was 8 µg/mL (≈ 15.9 µM), the MIC (S. aureus; [6]) was 8 µg/mL (≈ 15.9 µM) and the MIC (S. aureus; [7]) was 8 µg/mL (≈ 15.9 µM). The MIC (S. aureus; [8]) was 16 µg/mL (≈ 31.8 µM), the MIC [1] was > 64 µg/mL and the MIC [2] was > 64 µg/mL. The MIC (S. pneumoniae) was 4 µg/mL (≈ 7.94 µM), the MIC [3] was > 64 µg/mL and the MIC (P. aeruginosa ATCC 27853) was > 64 µg/mL. For the same compound, the MIC [4] was > 64 µg/mL, the MIC (H. influenzae ATCC 49247) was 1 µg/mL (≈ 1.99 µM) and the MIC (Gram-Negative Organisms; [9]) was > 64 µg/mL. For the same compound, the MIC (Gram-Negative Organisms; [10]) was > 64 µg/mL, the MIC (Gram-Negative Organisms; [11]) was 1 µg/mL (≈ 1.99 µM) and the MIC (Gram-Negative Organisms; [12]) was 2 µg/mL (≈ 3.97 µM). For the same compound, the MIC (Gram-Negative Organisms; [13]) was 0.5 µg/mL (≈ 0.993 µM) and the MIC (Gram-Negative Organisms; [15]) was > 64 µg/mL.

In the case of `CC1=C\[C@@H](O)CC(=O)Cc2nc(co2)C(=O)N2CCC=C2C(=O)O[C@H](C(C)C)[C@H](C)/C=C/C(=O)NC\C=C\1` [virginiamycin M1, Virginiamycin M1, reference compound], the MIC (E. faecalis) is reported as 32 µg/mL (≈ 60.9 µM), the MIC (E. faecium ATCC 35667) is reported as 2 µg/mL (≈ 3.81 µM) and the MIC (E. faecium VRE; vanA) is reported as 4 µg/mL (≈ 7.61 µM). The MIC (S. aureus; [5]) was 4 µg/mL (≈ 7.61 µM), the MIC (S. aureus; [6]) was 2 µg/mL (≈ 3.81 µM) and the MIC (S. aureus; [7]) was 2 µg/mL (≈ 3.81 µM). For the same compound, the MIC (S. aureus; [8]) was 8 µg/mL (≈ 15.2 µM), the MIC [1] was 32 µg/mL (≈ 60.9 µM) and the MIC [2] was > 64 µg/mL. For the same compound, the MIC (S. pneumoniae) was 4 µg/mL (≈ 7.61 µM), the MIC [3] was > 64 µg/mL and the MIC (P. aeruginosa ATCC 27853) was > 64 µg/mL. The MIC [4] was > 64 µg/mL, the MIC (H. influenzae ATCC 49247) was 1 µg/mL (≈ 1.9 µM) and the MIC (Gram-Negative Organisms; [9]) was > 64 µg/mL. The MIC (Gram-Negative Organisms; [10]) was > 64 µg/mL, the MIC (Gram-Negative Organisms; [11]) was > 64 µg/mL and the MIC (Gram-Negative Organisms; [12]) was 2 µg/mL (≈ 3.81 µM). The MIC (Gram-Negative Organisms; [13]) was 0.25 µg/mL (≈ 0.476 µM) and the MIC (Gram-Negative Organisms; [15]) was > 64 µg/mL.

`CC1=C\[C@@H](O)CC(=O)Cc2nc(co2)C(=O)N2CCC[C@@H]2C(=O)O[C@H](C(C)C)[C@H](C)/C=C/C(=O)NC\C=C\1` [virginiamycin M2, Virginiamycin M2, reference compound] was tested, and the MIC (E. faecalis) was > 64 µg/mL, the MIC (E. faecium ATCC 35667) was 4 µg/mL (≈ 7.58 µM) and the MIC (E. faecium VRE; vanA) was 8 µg/mL (≈ 15.2 µM). For the same compound, the MIC (S. aureus; [5]) was 16 µg/mL (≈ 30.3 µM), the MIC (S. aureus; [6]) was 8 µg/mL (≈ 15.2 µM) and the MIC (S. aureus; [7]) was 16 µg/mL (≈ 30.3 µM). For the same compound, the MIC (S. aureus; [8]) was 32 µg/mL (≈ 60.6 µM), the MIC [1] was > 64 µg/mL and the MIC [2] was > 64 µg/mL. The MIC (S. pneumoniae) was 8 µg/mL (≈ 15.2 µM), the MIC [3] was > 64 µg/mL and the MIC (P. aeruginosa ATCC 27853) was > 64 µg/mL. For the same compound, the MIC [4] was > 64 µg/mL, the MIC (H. influenzae ATCC 49247) was 16 µg/mL (≈ 30.3 µM) and the MIC (Gram-Negative Organisms; [9]) was > 64 µg/mL. The MIC (Gram-Negative Organisms; [10]) was > 64 µg/mL, the MIC (Gram-Negative Organisms; [11]) was 2 µg/mL (≈ 3.79 µM) and the MIC (Gram-Negative Organisms; [12]) was 2 µg/mL (≈ 3.79 µM). For the same compound, the MIC (Gram-Negative Organisms; [13]) was 2 µg/mL (≈ 3.79 µM) and the MIC (Gram-Negative Organisms; [15]) was > 64 µg/mL.
